Data on 1 compound can be found in patent publication US12139498B1, “Positive allosteric modulators of the muscarinic acetylcholine receptor M4” (Vanderbilt University, priority 2023, dated 2024).

Data set [1] can be described thus: Fraction unbound in cyno plasma. It counts as in vitro ADME. To be noted: cynomolgus monkey, read-out: Cyno Fu (plasma). The protocol:
(§1) Compound 70 was tested in several in in vitro assays to investigate both metabolism and pharmacokinetics. These assays may be performed according to known methods as generally described in the following references: Conde-Ceide et al. ACS Med. Chem. Lett. 2015, 6, 716-720; Morris et al. J. Med. Chem. 2014, 57, 10192-10197; and Bubser et al. ACS Chem. Neurosci. 2014, 5, 920-942.

Data set [2] in a line: In vivo pharmacokinetics in cynomolgus monkey. Conditions: plasma. On the procedure: (§2) Compound 70 was tested in several in vivo assays and the pharmacokinetic parameters listed in the following table may be determined from pharmacokinetic studies in rat, dog, or cynomolgus monkey, according to known methods as generally described in the following references: Garrison et al. J. Med. Chem. 2022, 65, 6273-6286; Felts et al. J. Med. Chem 2017, 60, 5072-5085; and Yu et al. J. Med. Chem. 2021, 64, 4709-4729.

Data set [3] can be described thus: In vivo pharmacokinetics in dog. On the procedure:
as §2

Data set [4] addresses T1, Human M4 (Homo sapiens, UniProt P08173).
T1 sequence (P08173 1-479): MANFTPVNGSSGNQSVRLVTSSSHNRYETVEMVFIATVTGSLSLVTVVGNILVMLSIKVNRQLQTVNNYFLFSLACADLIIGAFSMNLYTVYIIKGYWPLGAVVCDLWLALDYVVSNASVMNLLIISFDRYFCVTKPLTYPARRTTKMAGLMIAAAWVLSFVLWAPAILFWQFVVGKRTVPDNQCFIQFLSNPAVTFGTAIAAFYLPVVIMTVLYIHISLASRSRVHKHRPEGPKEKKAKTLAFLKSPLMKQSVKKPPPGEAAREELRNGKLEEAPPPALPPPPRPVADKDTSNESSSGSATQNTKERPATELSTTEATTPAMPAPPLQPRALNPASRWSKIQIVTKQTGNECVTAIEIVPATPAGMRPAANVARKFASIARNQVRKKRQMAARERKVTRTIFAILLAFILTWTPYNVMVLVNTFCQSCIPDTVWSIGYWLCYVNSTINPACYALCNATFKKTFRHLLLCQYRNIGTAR
Briefly: Cellular cAMP Gi HTRF assay (agonist and potentiator modes). It counts as cell-based. Further details: expressed in transfected cells; host or cells: CHO cells stably expressing human M4. To be noted: n = 2. The text has this: Activation of the M4 receptor leads to the inhibition of cAMP production by coupling to Go proteins. To measure the level of CAMP inhibition by M4 allosteric modulators, a Homogeneous Time-Resolved Fluorescence (HTRF®) CAMP assay was employed using CHO cells stably expressing human or rat M4 receptors. The HTRF CAMP assay is a Time-Resolved Resonance Energy Transfer (TR-FRET) competitive immunoassay. Endogenous intracellular CAMP generated by cells competes with Europium cryptate-labeled cAMP (Europium donor, emission […]) for the binding to a cAMP antibody labeled with d2 (d2-acceptor, emission […]). Thus, the fluorescence emission ratio (665 nm/620 nm) is inversely proportional to the CAMP amount in the cells. Compound-mediated M4 activation results in an increase in HTRF ratio (665 nm/620 nm), indicative of a decrease in intracellular cAMP level. To monitor agonist activity, compounds were added to the M4 cells in the presence of an EC80 concentration of forskolin (adenylyl cyclase activator) which induces a submaximal intracellular cAMP level. To assess potentiator activity, compounds were added to the M4 cells with an EC50 concentration of forskolin in the presence of an EC20 concentration of acetylcholine. This functional assay allows determination of the potency and efficacy of compounds directly activating or potentiating the Gi/o-coupled M4 receptor; representative data are shown in Table 3.
Functional agonist and potentiator activities of compounds were determined by measuring cAMP levels in Chinese Hamster Ovary (CHO) cells stably expressing human or rat M4 muscarinic receptors using an HTRF CAMP Gi/o kit. Cells were maintained in F12 medium containing 10% FBS, 20 mM HEPES, 1× Antibiotic/Antimycotic, and G418 (500 μg/ml) in 37° C. humidified incubators in the presence of 5% CO2. The day before assay, the cells were trypsinized and resuspended in plating medium (growth medium without G418). The cells were plated to white, solid, flat-bottomed, 384 well plates at densities of 4,000 and 6,000 cells/10 μL/well, of human M4 and rat M4 cells, respectively. The cell plates were spun at 100×g for 1 min, then immediately placed in a 37° C. incubator in the presence of 5% CO2 overnight.
The next day, reagents were freshly diluted at a 2× concentration in assay buffer using F12 basal medium or stimulation buffer. All assay buffers contained 500 μM IBMX to block cAMP degradation. Activation of M4 by compounds was examined in cells stimulated with an EC80 concentration of forskolin to induce submaximal intracellular cAMP levels. Forskolin EC80 concentrations were determined from forskolin concentration response curves (CRCs) and ranged from 1.5 to 2.5 μM. […]
In general terms: Time-resolved FRET reads energy transfer from a long-lived donor to a nearby acceptor.

The nature of data set [5]: Rat intrinsic clearance. In kind it is in vitro ADME. On the procedure:
as §1

The target in data set [6] is P450 2D6 (Homo sapiens, UniProt P10635). Description: P450 2D6 inhibition. In kind it is in vitro ADME. On the procedure:
as §1

Like-named read-outs stand apart in the source and are kept apart here.

Chain of P450 2D6 (P10635 whole entry): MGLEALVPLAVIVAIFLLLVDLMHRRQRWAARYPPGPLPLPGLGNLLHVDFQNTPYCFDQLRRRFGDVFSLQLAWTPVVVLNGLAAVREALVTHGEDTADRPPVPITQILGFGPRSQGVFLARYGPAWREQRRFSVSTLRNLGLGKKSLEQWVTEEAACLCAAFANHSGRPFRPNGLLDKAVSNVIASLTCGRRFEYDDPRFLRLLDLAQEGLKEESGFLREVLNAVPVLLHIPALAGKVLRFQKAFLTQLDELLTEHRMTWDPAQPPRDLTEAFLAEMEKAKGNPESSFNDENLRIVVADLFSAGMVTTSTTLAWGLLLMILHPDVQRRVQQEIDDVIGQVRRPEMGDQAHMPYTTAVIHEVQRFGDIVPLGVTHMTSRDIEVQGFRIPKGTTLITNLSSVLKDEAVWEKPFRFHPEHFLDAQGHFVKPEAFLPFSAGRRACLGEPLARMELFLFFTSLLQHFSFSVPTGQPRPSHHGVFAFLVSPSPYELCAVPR

Consider `Cc1c(N2CCc3nc(C4(F)CC4)sc3C2)nc2nn(C)c(=O)n2c1C` [Compound 70, 7-(2-(1-fluorocyclopropyl)-6,7-dihydrothiazolo[5,4-c]pyridin-5(4H)-yl)-2,5,6-trimethyl-[1,2,4]triazolo[4,3-a]pyrimidin-3(2H)-one], for which, in data set [1], the fraction unbound turned out to be 0.177. Besides, the clearance in data set [2] (read-out: Cyno CLp) was found to be 0.294 L/h/kg; in data set [3] (plasma, read-out: Dog CLp) it was 1.46 L/h/kg. In addition, the half-life in data set [2] (read-out: Cyno Elim. t1/2 (converted)) was 4.2 h; in data set [3] (plasma, read-out: Dog Elim. t1/2 (converted)) it was 2.1 h. The Vd is 1.4 L/kg in data set [2] (read-out: Cyno Vss) and 3.1 L/kg in data set [3] (plasma, read-out: Dog Vss). Also, the “Dog oral F (3 mg/kg)” value in data set [3] (oral 3 mg/kg) is 83%. The “hM4_cAMP Activity Agonist % ACh Max” value in data set [4] (agonist mode, EC80 forskolin, no acetylcholine) is 81 % ACh Max. Moreover, the EC50 in data set [4] (agonist mode, EC80 forskolin, no acetylcholine, read-out: hM4_cAMP Activity Agonist EC50) is 0.019 µM; in data set [4] (potentiator mode, forskolin plus EC20 acetylcholine, read-out: hM4_cAMP Activity PAM EC50) it was 0.011 µM. In addition, the “hM4_cAMP Activity PAM % ACh Max” value in data set [4] (potentiator mode, forskolin plus EC20 acetylcholine) stood at 74 % ACh Max. For the same compound, the intrinsic metabolic clearance (CLint scaled) in data set [5] amounted to 2.16 L/h/kg. In data set [6], this compound yielded an IC50 above 30 µM.

By EC50 is commonly meant the concentration at which the effect is half-maximal. For orientation: CLint scaled means the capacity of the preparation to metabolise the compound, expressed as a volume cleared per time. One may read the IC50 as the midpoint of a concentration-inhibition curve.
